These results are taken from patent US9913816B2, “Method for applying metformin and sodium butyrate in K-ras mutation cancer treatment” (Johnpro Biotech Inc., priority 2013, dated 2018).

Molecules are shown by their SMILES.

This assay relates to HCT116 cells. The following applies: 72 hours; final concentration 0.75 mM sodium butyrate, 2 mM metformin, alone or both in combination; FIG. 1. The method, then: The human colon cancer cell HCT116 (cell line with K-ras mutation) is cultured in the McCoy's 5A with 10% fetal bovine serum. When the HCT116 cells are cultured to the appropriate number, then the adherent HCT116 cells are suspended, and 2.5×10^5 HCT116 cells per well are seeded in a 6-wells dish. After incubated for 12 hours, sodium butyrate with a final concentration of 0.75 mM, metformin with a final concentration of 2 mM, and the pharmaceutical composition with final concentration of […] are respectively added to the 6-wells dish as above mentioned.
In this embodiment, the final concentration as mentioned means the concentration of respective substances after added in the medium for cell culture, and therefore the medium respectively contains 0.75 mM sodium butyrate, 2 mM metformin, or 0.75 mM sodium butyrate and 2 mM metformin.
After respectably added the above compounds to HCT116 cells, the 6-well dish is incubated in an incubator of 37° C. for 72 hours. After that, the medium and compounds in each well are sequentially removed, and each well is washed by Phosphate Buffered Saline (PBS), then the HCT116 cells are harvested, by treating trypsin-EDTA, for apoptosis analysis.
The apoptosis analysis is based on the Annexin V apoptosis detection kit (BD Pharmingen) for analysis the exposure of phosphatidylserine, and the protocol follows the accompanying manual. In brief, the treated HCT116 cells are washed three times with PBS, and then immediately stained with Annexin V/Propidium Iodide (PI). 1% fetal bovine serum albumin (BSA) is first added to the treated cells. After subsequently added 222.5 μl of binding buffer, 10 μl of PI and 2.5 μl of Annexin V-FITC are directly then added to stain the cells, followed by immediate incubation for 10 minutes at low temperature in the dark. The percentage of the apoptosis is calculated by the flow cytometry and FACSCalibur, the analysis software thereof.

As to `CN(C)C(=N)N=C(N)N` [metformin], the “apoptotic rate of HCT116 cells” value is “about 20%” and the “improvement of apoptotic rate compared to the control group” value was “about 15%”.
With `CCCC(=O)[O-].[Na+]` [sodium butyrate], the “apoptotic rate of HCT116 cells” value is recorded as “about 20%” and the “improvement of apoptotic rate compared to the control group” value is listed as “about 15%”.
